“And” between values parts separate entries of the source, which are not always exact repeats. Identical values can stand only once. The source made the active and inactive calls. The rule behind the calls is not given here.
Tested on: rodent lifetime carcinogenesis bioassay, tumor incidence TD50
Test: carcinogenic potency in animals, long-term in vivo studies, CPDB compilation (AID 1745844)
Settings: rat

SMILES: ClC=C(Cl)Cl
- TD50 (strain Han:WIST, males, inhaled, site: kidney, lesion: tubular-cell adenoma, dosed 78 weeks, study length 156 weeks): 10700 mg/kg/day (inactive)
- carcinogen call (strain Han:WIST, males, inhaled, site: liver, lesion: hepatocellular adenoma, dosed 78 weeks, study length 156 weeks): negative (inactive)
- TD50 (strain Marshall, females, by gavage, site: any site (literature study), lesion: several types, types named in the paper, dosed 103 weeks, study length 104 weeks): 709 mg/kg/day
- TD50 (strain Marshall, females, by gavage, site: kidney, lesion: tubular-cell adenocarcinoma, dosed 103 weeks, study length 104 weeks): 4110 mg/kg/day
- TD50 (strain Marshall, females, by gavage, site: kidney, lesion: tubular-cell adenoma + tubular-cell adenocarcinoma, dosed 103 weeks, study length 104 weeks): 4370 mg/kg/day
- TD50 (strain Marshall, males, by gavage, site: any site (literature study), lesion: several types, types named in the paper, dosed 103 weeks, study length 104 weeks): 199 mg/kg/day
- TD50 (strain Marshall, males, by gavage, site: kidney, lesion: tubular-cell adenocarcinoma, dosed 103 weeks, study length 104 weeks): 8000 mg/kg/day
- TD50 (strain Marshall, males, by gavage, site: kidney, lesion: tubular-cell adenoma + tubular-cell adenocarcinoma, dosed 103 weeks, study length 104 weeks): 5710 mg/kg/day
- TD50 (strain Marshall, males, by gavage, site: testis, lesion: interstitial-cell tumor + interstitial-cell tumor, malignant, dosed 103 weeks, study length 104 weeks): 153 mg/kg/day
- TD50 (strain Marshall, males, by gavage, site: testis, lesion: interstitial-cell tumor, malignant, dosed 103 weeks, study length 104 weeks): 6540 mg/kg/day
- TD50 (strain Osborne-Mendel, females, by gavage, site: adrenal gland, lesion: cortical adenoma, dosed 103 weeks, study length 104 weeks): 556 mg/kg/day
- TD50 (strain Osborne-Mendel, females, by gavage, site: any site (literature study), lesion: several types, types named in the paper, dosed 78 weeks, study length 110 weeks): 5620 mg/kg/day (inactive)
- TD50 (strain Osborne-Mendel, females, by gavage, site: any site (literature study), lesion: several types, types named in the paper, dosed 103 weeks, study length 104 weeks): 372 mg/kg/day
- TD50 (strain Osborne-Mendel, females, by gavage, site: kidney, lesion: tubular-cell adenoma, dosed 103 weeks, study length 104 weeks): 10700 mg/kg/day
- TD50 (strain Osborne-Mendel, females, by gavage, site: liver, lesion: hepatocellular adenoma + hepatocellular carcinoma + neoplastic nodule, dosed 103 weeks, study length 104 weeks): 3500 mg/kg/day
- TD50 (strain Osborne-Mendel, males, by gavage, site: any site (literature study), lesion: several types, types named in the paper, dosed 78 weeks, study length 110 weeks): 16000 mg/kg/day
- TD50 (strain Osborne-Mendel, males, by gavage, site: any site (literature study), lesion: several types, types named in the paper, dosed 103 weeks, study length 104 weeks): 1490 mg/kg/day
- TD50 (strain Osborne-Mendel, males, by gavage, site: kidney, lesion: tubular-cell adenocarcinoma, dosed 78 weeks, study length 110 weeks): 7220 mg/kg/day
- TD50 (strain Osborne-Mendel, males, by gavage, site: kidney, lesion: tubular-cell adenoma + tubular-cell adenocarcinoma, dosed 103 weeks, study length 104 weeks): 628 mg/kg/day
- TD50 (strain Osborne-Mendel, males, by gavage, site: kidney, lesion: tubular-cell adenoma, dosed 103 weeks, study length 104 weeks): 628 mg/kg/day
- TD50 (strain Osborne-Mendel, males, by gavage, site: liver, lesion: hepatocellular adenoma + hepatocellular carcinoma + neoplastic nodule, dosed 103 weeks, study length 104 weeks): 8950 mg/kg/day
- TD50 (strain Sprague-Dawley, females, inhaled, site: any site (literature study), lesion: several types, types named in the paper, dosed 104 weeks, study length 159 weeks): 3890 mg/kg/day
- TD50 (strain Sprague-Dawley, females, inhaled, site: kidney, lesion: several types, types named in the paper, dosed 104 weeks, study length 159 weeks): 41300 mg/kg/day
- TD50 (strain Sprague-Dawley, females, inhaled, site: kidney, lesion: tubular-cell adenocarcinoma, dosed 104 weeks, study length 159 weeks): 43200 mg/kg/day
- TD50 (strain Sprague-Dawley, females, inhaled, site: liver, lesion: angiosarcoma, dosed 104 weeks, study length 159 weeks): 8010 mg/kg/day
- TD50 (strain Sprague-Dawley, females, inhaled, site: liver, lesion: neoplastic nodule, dosed 104 weeks, study length 159 weeks): 9680 mg/kg/day
- TD50 (strain Sprague-Dawley, males, by gavage, site: all sites, lesion: leukemia, dosed 52 weeks, study length 140 weeks): 428 mg/kg/day
- TD50 (strain Sprague-Dawley, males, by gavage, site: any site (literature study), lesion: malignant tumor, dosed 52 weeks, study length 140 weeks): 818 mg/kg/day
- TD50 (strain Sprague-Dawley, males, inhaled, site: all sites, lesion: leukemia, dosed 104 weeks, study length 159 weeks): 5930 mg/kg/day and 2810 mg/kg/day
- TD50 (strain Sprague-Dawley, males, inhaled, site: kidney, lesion: tubular-cell adenocarcinoma, dosed 104 weeks, study length 159 weeks): 9490 mg/kg/day and 12400 mg/kg/day
- TD50 (strain Sprague-Dawley, males, inhaled, site: kidney, lesion: tubular-cell adenoma, dosed 104 weeks, study length 159 weeks): 29200 mg/kg/day
- TD50 (strain Sprague-Dawley, males, inhaled, site: liver, lesion: neoplastic nodule, dosed 104 weeks, study length 159 weeks): 30700 mg/kg/day
- TD50 (strain Sprague-Dawley, males, inhaled, site: mammary gland, lesion: one or several types, types not named, dosed 104 weeks, study length 159 weeks): 120 mg/kg/day
- TD50 (strain Sprague-Dawley, males, inhaled, site: testis, lesion: Leydig-cell tumor, dosed 104 weeks, study length 159 weeks): 557 mg/kg/day and 835 mg/kg/day

Reference: PubChem BioAssay AID1745844 (Carcinogenic Potency Database (CPDB), 2022)
